Reference: article PMC9410420, “Novel Labdane Diterpenes-Based Synthetic Derivatives: Identification of a Bifunctional Vasodilator That Inhibits CaV1.2 and Stimulates KCa1.1 Channels” (Marine Drugs, 2022)

How the values were obtained:
rat aorta rings [1] = experiment: KCl-induced contraction of rat aorta rings (electromechanical coupling)
Procedure: (§1) The abdominal aorta was gently cleaned of adipose and connective tissues and cut into 3-mm wide rings. These were mounted in organ baths between two parallel, L-shaped, stainless-steel hooks, with one fixed in place and the other connected to an isometric transducer. Rings were allowed to equilibrate for 60 min in modified Krebs-Henseleit solution (composition in mM: 118 NaCl, 4.75 KCl, 1.19 KH2PO4, 1.19 MgSO4, 25 NaHCO3, 11.5 glucose, 2.5 CaCl2, gassed with a 95% O2–5% CO2 gas mixture to create a pH of 7.4) under a passive tension of 1 g. During this equilibration period, the solution was changed every 15 min. Isometric tension was recorded using a digital PowerLab data acquisition system (PowerLab 8/30; ADInstruments). Ring viability was assessed by recording the response to 0.3 µM phenylephrine and 60 mM KCl. Where needed, the endothelium was removed by gently rubbing the lumen of the ring with a forceps tip. This procedure was validated by adding 10 µM acetylcholine at the plateau of phenylephrine-induced contraction; a relaxation greater than 70% or less than 10% denoted the presence or absence of functional endothelium, respectively.
(§2) Aorta rings were pre-contracted pharmaco-mechanically using 0.3 µM phenylephrine and electromechanically using 25–30 mM or 60 mM KCl. Once the contraction reached a plateau, the compound was added cumulatively into the organ bath. […] The response was calculated as the percentage of phenylephrine- or KCl-induced contraction (taken as 100%).

rat aorta rings [2] = experiment: Phenylephrine-induced contraction of rat aorta rings (pharmaco-mechanical coupling); conditions: for Emax: Rattus norvegicus; for Emax / IC50: 0.3 µM phenylephrine
Procedure: as §1, §2

CaV1.2 channel [3] = target: T1, CaV1.2 channel (Rattus norvegicus, UniProt P22002); experiment: Whole-cell patch-clamp, Ba2+ current through CaV1.2 channels (IBa1.2) in rat tail artery myocytes; assay type: cell-based; conditions: for Emax: read-out: Emax (percent maximal inhibition), IBa1.2; for IC50: read-out: IC50, IBa1.2 inhibition
T1 construct: smooth muscle cells were freshly isolated; endogenous in cells; host or cells: freshly isolated rat tail main artery smooth muscle cells
T1 sequence (P22002 whole entry): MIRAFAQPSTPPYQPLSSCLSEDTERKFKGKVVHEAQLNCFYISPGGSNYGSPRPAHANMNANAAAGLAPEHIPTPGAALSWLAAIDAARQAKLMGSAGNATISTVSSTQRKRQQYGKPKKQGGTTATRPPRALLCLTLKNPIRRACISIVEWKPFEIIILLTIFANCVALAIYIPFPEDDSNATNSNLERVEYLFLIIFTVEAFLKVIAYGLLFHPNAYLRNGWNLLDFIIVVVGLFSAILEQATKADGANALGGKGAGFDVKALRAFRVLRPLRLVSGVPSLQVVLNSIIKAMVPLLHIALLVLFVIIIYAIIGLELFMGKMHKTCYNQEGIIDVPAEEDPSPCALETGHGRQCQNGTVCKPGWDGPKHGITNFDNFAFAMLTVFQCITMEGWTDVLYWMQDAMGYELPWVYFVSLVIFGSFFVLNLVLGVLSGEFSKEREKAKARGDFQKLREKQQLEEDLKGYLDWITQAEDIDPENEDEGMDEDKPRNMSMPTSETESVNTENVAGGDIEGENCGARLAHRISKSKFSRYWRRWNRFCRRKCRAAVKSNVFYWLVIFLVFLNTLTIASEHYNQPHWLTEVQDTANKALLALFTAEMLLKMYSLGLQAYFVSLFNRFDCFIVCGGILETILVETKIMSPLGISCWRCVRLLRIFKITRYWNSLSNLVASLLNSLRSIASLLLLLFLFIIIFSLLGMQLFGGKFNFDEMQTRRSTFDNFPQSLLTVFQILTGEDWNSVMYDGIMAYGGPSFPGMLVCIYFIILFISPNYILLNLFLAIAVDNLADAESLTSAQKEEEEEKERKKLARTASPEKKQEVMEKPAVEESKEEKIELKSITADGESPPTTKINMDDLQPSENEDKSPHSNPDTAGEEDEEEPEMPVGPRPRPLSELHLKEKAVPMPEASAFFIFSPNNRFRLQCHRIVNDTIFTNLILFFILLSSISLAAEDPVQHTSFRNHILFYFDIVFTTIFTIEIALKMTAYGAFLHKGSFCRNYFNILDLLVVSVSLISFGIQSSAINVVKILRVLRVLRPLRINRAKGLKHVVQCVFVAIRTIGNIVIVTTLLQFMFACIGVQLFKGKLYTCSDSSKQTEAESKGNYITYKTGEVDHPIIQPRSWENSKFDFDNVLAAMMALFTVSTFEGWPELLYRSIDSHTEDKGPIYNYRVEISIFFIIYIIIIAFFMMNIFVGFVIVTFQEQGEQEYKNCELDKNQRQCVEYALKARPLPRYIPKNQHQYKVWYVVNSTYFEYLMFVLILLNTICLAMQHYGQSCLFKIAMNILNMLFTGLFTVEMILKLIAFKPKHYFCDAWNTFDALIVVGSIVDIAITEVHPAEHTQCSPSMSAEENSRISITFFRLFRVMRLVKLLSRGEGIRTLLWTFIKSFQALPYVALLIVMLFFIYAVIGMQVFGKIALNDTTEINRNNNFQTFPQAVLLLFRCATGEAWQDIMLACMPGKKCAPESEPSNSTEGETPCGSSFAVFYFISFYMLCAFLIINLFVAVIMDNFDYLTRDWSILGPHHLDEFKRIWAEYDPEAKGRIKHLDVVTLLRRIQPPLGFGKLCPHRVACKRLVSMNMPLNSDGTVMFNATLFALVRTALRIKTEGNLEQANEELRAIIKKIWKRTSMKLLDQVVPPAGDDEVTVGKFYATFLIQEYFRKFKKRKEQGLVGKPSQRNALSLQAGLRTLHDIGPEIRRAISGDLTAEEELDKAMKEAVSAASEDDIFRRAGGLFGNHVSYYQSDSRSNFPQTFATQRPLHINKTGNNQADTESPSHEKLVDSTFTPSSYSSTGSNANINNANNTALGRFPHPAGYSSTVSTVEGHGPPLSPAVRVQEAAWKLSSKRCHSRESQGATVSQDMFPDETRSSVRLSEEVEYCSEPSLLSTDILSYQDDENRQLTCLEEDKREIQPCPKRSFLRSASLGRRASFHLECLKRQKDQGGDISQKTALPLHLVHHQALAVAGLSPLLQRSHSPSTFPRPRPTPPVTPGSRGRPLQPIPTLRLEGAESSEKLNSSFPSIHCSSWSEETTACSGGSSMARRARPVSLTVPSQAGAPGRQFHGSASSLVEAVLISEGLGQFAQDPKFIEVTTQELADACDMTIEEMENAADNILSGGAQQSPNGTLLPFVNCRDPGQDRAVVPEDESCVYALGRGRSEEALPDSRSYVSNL
T1 sequence (P54290 25-944 partner limits assumed): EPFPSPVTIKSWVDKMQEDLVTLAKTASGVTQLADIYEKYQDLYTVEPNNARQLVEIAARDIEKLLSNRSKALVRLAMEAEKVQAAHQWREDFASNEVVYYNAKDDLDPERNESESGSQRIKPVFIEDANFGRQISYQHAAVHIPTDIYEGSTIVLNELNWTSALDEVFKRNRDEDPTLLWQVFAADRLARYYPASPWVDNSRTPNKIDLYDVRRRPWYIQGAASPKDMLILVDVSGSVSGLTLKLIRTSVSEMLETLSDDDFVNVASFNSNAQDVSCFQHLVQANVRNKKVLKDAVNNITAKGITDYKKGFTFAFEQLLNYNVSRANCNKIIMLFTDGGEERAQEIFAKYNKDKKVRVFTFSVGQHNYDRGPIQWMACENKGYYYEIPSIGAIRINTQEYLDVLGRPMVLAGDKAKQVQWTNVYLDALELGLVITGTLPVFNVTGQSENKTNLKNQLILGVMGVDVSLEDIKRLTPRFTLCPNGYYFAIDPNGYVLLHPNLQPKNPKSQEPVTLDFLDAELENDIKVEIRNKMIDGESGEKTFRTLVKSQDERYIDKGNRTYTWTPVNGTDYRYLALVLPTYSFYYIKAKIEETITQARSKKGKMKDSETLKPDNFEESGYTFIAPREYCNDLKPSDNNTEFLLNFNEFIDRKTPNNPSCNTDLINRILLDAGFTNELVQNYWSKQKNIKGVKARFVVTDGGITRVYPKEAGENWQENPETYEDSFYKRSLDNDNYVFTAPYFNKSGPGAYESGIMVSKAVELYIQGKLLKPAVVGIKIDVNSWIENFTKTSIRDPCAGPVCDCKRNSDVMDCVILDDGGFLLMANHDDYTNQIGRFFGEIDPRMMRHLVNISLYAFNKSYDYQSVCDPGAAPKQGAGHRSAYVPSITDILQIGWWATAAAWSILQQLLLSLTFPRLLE
T1 sequence (P54290 945-1091 partner limits assumed): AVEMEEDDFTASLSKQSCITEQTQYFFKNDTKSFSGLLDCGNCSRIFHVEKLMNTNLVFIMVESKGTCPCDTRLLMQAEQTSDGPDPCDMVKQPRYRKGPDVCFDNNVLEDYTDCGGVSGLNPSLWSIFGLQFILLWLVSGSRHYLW
T1 sequence (P54287 whole entry partner): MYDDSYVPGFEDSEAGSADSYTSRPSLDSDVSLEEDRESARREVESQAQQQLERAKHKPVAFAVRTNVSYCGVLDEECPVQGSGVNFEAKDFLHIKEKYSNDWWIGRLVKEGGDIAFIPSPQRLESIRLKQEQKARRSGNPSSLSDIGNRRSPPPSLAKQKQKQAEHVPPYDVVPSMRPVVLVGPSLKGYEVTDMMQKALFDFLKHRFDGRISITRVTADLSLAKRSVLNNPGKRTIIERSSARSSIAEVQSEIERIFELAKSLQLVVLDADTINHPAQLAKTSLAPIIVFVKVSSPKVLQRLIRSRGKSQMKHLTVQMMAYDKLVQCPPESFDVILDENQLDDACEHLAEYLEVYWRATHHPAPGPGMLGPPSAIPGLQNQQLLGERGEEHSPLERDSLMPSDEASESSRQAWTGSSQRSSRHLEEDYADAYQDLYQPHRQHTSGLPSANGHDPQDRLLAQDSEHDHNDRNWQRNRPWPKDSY
Procedure: The tail main artery was dissected free of its connective tissue, and smooth muscle cells were freshly isolated under the following conditions. […] Cells stored in 0.05 mM Ca^2+ external solution containing 20 mM taurine and 0.5 mg/mL BSA at 4 °C under normal air were used for experiments within two days after isolation.
An Axopatch 200B patch-clamp amplifier (Molecular Devices Corporation, Sunnyvale, CA, USA) was used to generate and apply voltage pulses to the clamped cells and record the corresponding membrane currents. Recording electrodes were pulled from borosilicate glass capillaries (WPI, Berlin, Germany) and fire-polished to obtain a pipette resistance of 2–4 MΩ, when filled with an internal solution. At the beginning of each experiment, the junction potential between the pipette and bath solution was electronically adjusted to zero. […] Electrophysiological responses were tested at room temperature (20–22 °C).
The conventional whole-cell patch-clamp method was employed to voltage-clamp smooth muscle cells. The internal solution consisted of (in mM) 100 CsCl, 10 HEPES, 11 EGTA, 2 MgCl2, 1 CaCl2 (pCa 8.4), 5 Na pyruvate, 5 succinic acid, 5 oxaloacetic acid, 3 Na2ATP, and 5 phosphocreatine; pH was adjusted to 7.4 with CsOH. IBa1.2 was recorded in an external solution containing 30 mM TEA and 5 mM Ba^2+. […] Data were collected once the current amplitude had been stabilized (usually 7–10 min after the whole-cell configuration had been obtained).

CaV1.2 channel [4] = target: T1, CaV1.2 channel; experiment: Voltage dependence of CaV1.2 channel steady-state activation and inactivation in rat tail artery myocytes; assay type: cell-based; conditions: for Slope inact (slope factor of inactivation) / V50 inact (50% inactivation potential): Vh −80 mV
Description: An Axopatch 200B patch-clamp amplifier (Molecular Devices Corporation, Sunnyvale, CA, USA) was used to generate and apply voltage pulses to the clamped cells and record the corresponding membrane currents. Recording electrodes were pulled from borosilicate glass capillaries (WPI, Berlin, Germany) and fire-polished to obtain a pipette resistance of 2–4 MΩ, when filled with an internal solution. At the beginning of each experiment, the junction potential between the pipette and bath solution was electronically adjusted to zero. After compensation for whole-cell capacitance and series resistance (between 70% and 75%), current signals were low-pass filtered at 1 kHz and digitized at 3 kHz, before being stored on a computer hard disk. Electrophysiological responses were tested at room temperature (20–22 °C).
Cells were continuously superfused with an external solution containing 0.1 mM Ca^2+ and 30 mM TEA using a peristaltic pump (LKB 2132, Bromma, Sweden) at a flow rate of 400 µL/min. The conventional whole-cell patch-clamp method was employed to voltage-clamp smooth muscle cells. The internal solution consisted of (in mM) 100 CsCl, 10 HEPES, 11 EGTA, 2 MgCl2, 1 CaCl2 (pCa 8.4), 5 Na pyruvate, 5 succinic acid, 5 oxaloacetic acid, 3 Na2ATP, and 5 phosphocreatine; pH was adjusted to 7.4 with CsOH. IBa1.2 was recorded in an external solution containing 30 mM TEA and 5 mM Ba^2+. The current was elicited with 250-ms clamp pulses (0.067 Hz) to 10 mV, from a Vh of −50 mV. Data were collected once the current amplitude had been stabilized (usually 7–10 min after the whole-cell configuration had been obtained).
Steady-state activation curves were derived from the current–voltage relationships. Conductance (G) was calculated from the equation G = IBa1.2/(Em − Erev), where: IBa1.2 is the peak current elicited by depolarizing test pulses between −50 mV and 40 mV from a Vh of −50 mV; Em is the membrane potential; and Erev is the reversal potential (estimated from the extrapolated current-voltage curves in Figure 2). Gmax is the maximal Ba^2+ conductance (calculated at potentials ≤40 mV). The G/Gmax ratio was plotted against the membrane potential and fitted to the Boltzmann equation [40]. Steady-state inactivation curves were obtained using a double-pulse protocol. Once various levels of the conditioning potential had been applied for 5 s, followed by a short (5-ms) return to the Vh of −80 mV, a test pulse (250 ms) to 10 mV was delivered to evoke the current. The delay between the conditioning potential and the test pulse allowed the full or near-complete deactivation of the channels, simultaneously avoiding partial recovery from inactivation. K^+ currents were blocked with 30 mM TEA in the external solution and Cs^+ in the internal solution. […] The osmolarity of the 30 mM TEA- and 5 mM Ba^2+-containing external solution (320 mosmol, adjusted with NaCl if required) and that of the internal solution (290 mosmol) were measured with an osmometer (Osmostat OM 6020, Menarini Diagnostics, Florence, Italy).

[5] = endothelium-denuded rat aorta rings pre-contracted by 25 mM KCl, read-out: Emax (percent maximal inhibition), KCl 25 mM-induced contraction
[6] = endothelium-denuded rat aorta rings pre-contracted by 25 mM KCl, read-out: IC50, KCl 25 mM-induced contraction
[7] = endothelium-denuded rat aorta rings pre-contracted by 60 mM KCl, read-out: Emax (percent maximal inhibition), KCl 60 mM-induced contraction
[8] = endothelium-denuded rat aorta rings pre-contracted by 60 mM KCl, read-out: IC50, KCl 60 mM-induced contraction
[9] = endothelium-denuded rat aorta rings, read-out: Emax (percent maximal inhibition), phenylephrine-induced contraction, −Endothelium
[10] = endothelium-intact rat aorta rings, read-out: Emax (percent maximal inhibition), phenylephrine-induced contraction, +Endothelium
[11] = endothelium-denuded rat aorta rings

Row | IC50 (rat aorta rings [1]; [6]) | IC50 (rat aorta rings [1]; [8]) | IC50 (rat aorta rings [2]; [11]) | Molecule | Emax (rat aorta rings [1]; [5]) | Emax (rat aorta rings [1]; [7]) | Emax (rat aorta rings [2]; [9]) | Emax (rat aorta rings [2]; [10]) | Emax (CaV1.2 channel [3]; pulses to 10 mV from Vh −50 mV) | IC50 (CaV1.2 channel [3]; pulses to 10 mV from Vh −50 mV) | Slope act (slope factor of activation) (CaV1.2 channel [4]; 10 µM compound) | V50 act (50% activation potential) (CaV1.2 channel [4]; 10 µM compound) | Slope inact (slope factor of inactivation) (CaV1.2 channel [4]; 10 µM compound) | V50 inact (50% inactivation potential) (CaV1.2 channel [4]; 10 µM compound) | Slope act (slope factor of activation) (CaV1.2 channel [4]; 30 µM compound) | V50 act (50% activation potential) (CaV1.2 channel [4]; 30 µM compound) | IBa1.2, % of the control (CaV1.2 channel [3]; 100 nM, n = 5) | Effect on phenylephrine-induced tone in words (rat aorta rings [2]; endothelium-intact rat aorta rings) | Emax (percent maximal inhibition), KCl 60 mM-induced contraction (rat aorta rings [1]; endothelium-denuded rat aorta rings pre-contracted by 60 mM KCl) | Emax (percent maximal inhibition), IBa1.2 (CaV1.2 channel [3]; pulses to 10 mV from Vh −50 mV)
1 | 0.9 ± 0.2 µM | 4.5 ± 0.5 µM | ~55 µM | CC1(C)CCC[C@]2(C)[C@@H](CC(=O)NCCc3cccc(F)c3)[C@](C)(O)CC[C@@H]12 [Compound 9] | 92.3 ± 0.6% | 92.4 ± 1.3% | ≤ 60% | 19.4 ± 23.2% | 97.8 ± 0.8% | 15.3 ± 5.3 µM | 6.79 ± 0.35 | −2.37 ± 0.95 mV | −10.25 ± 1.33 | −36.46 ± 2.73 mV | – | – | – | – | – | –
2 | – | ~69.2 µM | – | CC1(C)CCC[C@]2(C)[C@@H](CCOCc3cccc(Cl)c3)[C@](C)(O)CC[C@@H]12 [Compound 10] | – | 53.1 ± 13.4% | – | – | 86.4 ± 4.9% | 20.8 ± 6.1 µM | – | – | – | – | – | – | – | – | – | –

The next lines start with the molecule.

Row | Molecule | IC50 (rat aorta rings [1]; [6]) | IC50 (rat aorta rings [1]; [8]) | IC50 (rat aorta rings [2]; [11]) | Emax (rat aorta rings [1]; [5]) | Emax (rat aorta rings [1]; [7]) | Emax (rat aorta rings [2]; [9]) | Emax (rat aorta rings [2]; [10]) | Emax (CaV1.2 channel [3]; pulses to 10 mV from Vh −50 mV) | IC50 (CaV1.2 channel [3]; pulses to 10 mV from Vh −50 mV) | Slope act (slope factor of activation) (CaV1.2 channel [4]; 10 µM compound) | V50 act (50% activation potential) (CaV1.2 channel [4]; 10 µM compound) | Slope inact (slope factor of inactivation) (CaV1.2 channel [4]; 10 µM compound) | V50 inact (50% inactivation potential) (CaV1.2 channel [4]; 10 µM compound) | Slope act (slope factor of activation) (CaV1.2 channel [4]; 30 µM compound) | V50 act (50% activation potential) (CaV1.2 channel [4]; 30 µM compound) | IBa1.2, % of the control (CaV1.2 channel [3]; 100 nM, n = 5) | Effect on phenylephrine-induced tone in words (rat aorta rings [2]; endothelium-intact rat aorta rings) | Emax (percent maximal inhibition), KCl 60 mM-induced contraction (rat aorta rings [1]; endothelium-denuded rat aorta rings pre-contracted by 60 mM KCl) | Emax (percent maximal inhibition), IBa1.2 (CaV1.2 channel [3]; pulses to 10 mV from Vh −50 mV)
3 | CC1(C)CCC[C@]2(C)[C@@H](CC(=O)NCc3ccco3)[C@](C)(O)CC[C@@H]12 [Compound 8] | 2.1 ± 0.9 µM | 6.1 ± 1.6 µM | ~44.7 µM | 85.8 ± 4.8% | 87.3 ± 4.9% | ≤ 60% | 15.2 ± 7.9% | 92.4 ± 2.2% | 16.7 ± 3 µM | – | – | −11.51 ± 1.90 | −30.97 ± 3.49 mV | 7.61 ± 0.66 | 0.03 ± 1.35 mV | – | – | – | –
4 | COC(=O)C1=C(C)NC(C)=C([N+](=O)[O-])[C@H]1c1ccccc1C(F)(F)F [Bay K 8644, (S)-(-)-Bay K 8644, reference compound] | – | – | – | – | – | – | – | – | – | – | – | – | – | – | – | 447 ± 28% | – | – | –
5 | CC1(C)CCCC2(C)C1CCC1(C)OC(=O)CC12 (single isomer, unassigned; (+)) [Compound 5, (+)-sclareolide, reference compound] | – | 29.2 ± 6.1 µM | – | 45.9 ± 8.5% | 73.5 ± 6.8% | – | – | 64.8 ± 6.1% | ~69 µM | – | – | – | – | – | – | – | dramatic concentration-dependent increase of phenylephrine-induced tone | – | –
6 | sclareol [Compound 6] | – | 11.9 ± 1.3 µM | – | – | – | – | – | – | 33.2 ± 6.8 µM | – | – | – | – | – | – | – | – | 98.8 ± 1.3 (5) % | 88.7 ± 4.0 (5) %
